{"source": "patent US20020061888A1", "about": "“Combination therapy for the prophylaxis and treatment of hyperlipidemic conditions and disorders” (priority 2000, published 2002)", "key": {"[1]": {"system": "Male beagle dogs", "assay": "Serum total cholesterol in beagle dogs (serum lipid measurements)", "type": "in vivo", "settings": "for SERUM TOTAL CHOLESTEROL / TOTAL SERUM CHOLESTEROL: n = 6; for decrease in serum total cholesterol concentration: compared to vehicle", "procedure": "(§1) Male beagle dogs (9-10 kg) obtained from Marshall farms were fed a normal chow diet once a day for a two hour interval and given water ad libitum. Prior to initiating treatment, the dogs were weighed and blood samples were drawn from the cephalic vein of each dog following an overnight fast to evaluate pretreatment serum total cholesterol levels at the start of the study. […] All doses were administered in gelatin capsules per os to each dog between 9:00-9:30 a.m. prior to feeding. All animals were fed between 9:30-10:00 a.m. and were allowed two hours to eat, at which time any remaining food was removed. […] Animals were dosed daily for three weeks and blood samples were taken at the end of each week after an overnight fast for comparison with pretreatment serum total cholesterol levels. Three consecutive 24 hour fecal samples were collected for each group during the last 72 hours of each week and used to measure the concentration of fecal biles acids excreted during that time period.\nBlood was collected from the cephalic vein of each dog into serum separator tubes. The blood was centrifuged at 900×g for 20 minutes at room temperature and the serum decanted. All analyses were performed on a Cobas Mira Clinical Analyzer System (Roche Diagnostic Systems, Branchburg, N.J.) using Roche Diagnostic reagents for enzymatic determinations of serum cholesterol. Commercial calibrator and quality control materials were analyzed with each run to verify assay accuracy and precision. A two-tailed, paired Students t-test was used to determine the statistical significance of changes in serum total cholesterol in treated dogs compared to pretreatment values. A one-way analysis of variance (“ANOVA”) was used to compare each pair of treatment groups to determine the statistical significance of changes in serum total cholesterol.\nBeagle dogs also were administered pravastatin to evaluate the monotherapeutic effect of pravastatin on serum total cholesterol.\nMale beagle dogs (9-10 kg) obtained from Marshall farms were fed once a day for two hours and given water ad libitum. Prior to initiating treatment, blood samples were drawn from the cephalic vein of each dog to evaluate pretreatment total serum cholesterol levels at the start of the study.\nFor the dose ranging study, the dogs were assigned to one of five groups based on mean body weights and serum total cholesterol levels. Each group received one of the following dosages: (1) vehicle (empty capsule, afternoon dosing), (2) 3.0 mg/kg/day pravastatin (afternoon dosing), (3) 10 mg/kg/day pravastatin (afternoon dosing), (4) 30 mg/kg/day pravastatin (afternoon dosing), and (5) 10 mg/kg/day pravastatin (morning dosing). One capsule containing pravastatin was administered per os to each dog between 9:00-9:30 a.m. prior to feeding for the 10 mg/kg/day morning dosing group and between 2:30-3:00 p.m. for the afternoon dosing groups. All animals were fed between 9:30-10:00 a.m. and were allowed two hours to eat, at which time any remaining food was removed. […] Animals were dosed daily for four weeks and blood samples were taken at the end of each week after an overnight fast for comparison with pretreatment serum total cholesterol levels.\n(§2) Following this initial four week dose-ranging study, dogs from the two groups receiving 10 mg/kg/day pravastatin (a.m. and p.m. dosing groups) were randomized into two new treatment groups based on serum total cholesterol levels to initiate the combination treatment study. […] Dosing continued in this manner for an additional four weeks (Weeks 5-8) with blood and 48-hour fecal samples collected at the end of each week for serum lipid measurements and fecal bile acid determinations, respectively."}, "[2]": {"system": "Male beagle dogs", "assay": "Body or fecal weights, stool consistency, general animal health of treated beagle dogs", "type": "in vivo", "settings": "any of the groups", "procedure": "as §1\nas §2, with “respectively. […] At the end of this three-week period, pravastatin dosing and all empty capsule dosing were discontinued and blood samples were collected weekly for a final three weeks (weeks 12-14) to monitor the return of serum total cholesterol levels back to baseline.” for “respectively.”\nMale beagle dogs (9-10 kg) obtained from Marshall farms were fed once a day for two hours and given water ad libitum."}}, "note": "“And” between values parts separate entries of the source, which are not always exact repeats. Equal values may be shown once. Marks after values point to notes of the source that are not given here.", "data": [{"smiles": "CCCCC1(CC)CS(=O)(=O)c2ccc(N(C)C)cc2[C@@H](c2cccc(OCc3ccc(C[N+]45CCN(CC4)CC5)cc3)c2)[C@H]1O.[Cl-]", "note": "(some centres unmarked) [Compound A-5]", "values": [{"measurement": "% change in serum total cholesterol compared to the pretreatment value of each group", "setting": "[1]; compound A-5 0.22 mg/kg/day per os, Week 1", "result": "(−9) %"}, {"measurement": "SERUM TOTAL CHOLESTEROL", "setting": "[1]; compound A-5 0.22 mg/kg/day per os, Week 1, mean ± SEM", "result": "140 ± 10^3 mg/dL"}, {"measurement": "% change in serum total cholesterol compared to the pretreatment value of each group", "setting": "[1]; compound A-5 0.22 mg/kg/day per os, Week 2", "result": "(−7) %"}, {"measurement": "SERUM TOTAL CHOLESTEROL", "setting": "[1]; compound A-5 0.22 mg/kg/day per os, Week 2, mean ± SEM", "result": "143 ± 11", "unit": "mg/dL"}, {"measurement": "% change in serum total cholesterol compared to the pretreatment value of each group", "setting": "[1]; compound A-5 0.22 mg/kg/day per os, Week 3", "result": "(−10) %"}, {"measurement": "SERUM TOTAL CHOLESTEROL", "setting": "[1]; compound A-5 0.22 mg/kg/day per os, Week 3, mean ± SEM", "result": "138 ± 11^3 mg/dL"}, {"measurement": "decrease in serum total cholesterol concentration", "setting": "[1]; compound A-5 0.22 mg/kg/day, one week of treatment", "result": 9, "unit": "%"}, {"measurement": "decrease in serum total cholesterol concentration", "setting": "[1]; compound A-5 0.22 mg/kg/day, three weeks of treatment", "result": 10, "unit": "%"}, {"measurement": "% change in serum total cholesterol compared to the pretreatment value of each group", "setting": "[1]; compound A-5 0.66 mg/kg/day per os, Week 1", "result": "(−7) %"}, {"measurement": "SERUM TOTAL CHOLESTEROL", "setting": "[1]; compound A-5 0.66 mg/kg/day per os, Week 1, mean ± SEM", "result": "145 ± 9", "unit": "mg/dL"}, {"measurement": "% change in serum total cholesterol compared to the pretreatment value of each group", "setting": "[1]; compound A-5 0.66 mg/kg/day per os, Week 2", "result": "(−4) %"}, {"measurement": "SERUM TOTAL CHOLESTEROL", "setting": "[1]; compound A-5 0.66 mg/kg/day per os, Week 2, mean ± SEM", "result": "149 ± 8", "unit": "mg/dL"}, {"measurement": "% change in serum total cholesterol compared to the pretreatment value of each group", "setting": "[1]; compound A-5 0.66 mg/kg/day per os, Week 3", "result": "(−6) %"}, {"measurement": "SERUM TOTAL CHOLESTEROL", "setting": "[1]; compound A-5 0.66 mg/kg/day per os, Week 3, mean ± SEM", "result": "146 ± 8", "unit": "mg/dL"}, {"measurement": "decrease in serum total cholesterol concentration", "setting": "[1]; compound A-5 0.66 mg/kg/day, one week of treatment", "result": 7, "unit": "%"}, {"measurement": "decrease in serum total cholesterol concentration", "setting": "[1]; compound A-5 0.66 mg/kg/day, three weeks of treatment", "result": 6, "unit": "%"}, {"measurement": "% change in serum total cholesterol compared to the pretreatment value of each group", "setting": "[1]; compound A-5 2.0 mg/kg/day per os, Week 1", "result": "(−12) %"}, {"measurement": "SERUM TOTAL CHOLESTEROL", "setting": "[1]; compound A-5 2.0 mg/kg/day per os, Week 1, mean ± SEM", "result": "137 ± 10^3 mg/dL"}, {"measurement": "% change in serum total cholesterol compared to the pretreatment value of each group", "setting": "[1]; compound A-5 2.0 mg/kg/day per os, Week 2", "result": "(−15) %"}, {"measurement": "SERUM TOTAL CHOLESTEROL", "setting": "[1]; compound A-5 2.0 mg/kg/day per os, Week 2, mean ± SEM", "result": "133 ± 11^3 mg/dL"}, {"measurement": "% change in serum total cholesterol compared to the pretreatment value of each group", "setting": "[1]; compound A-5 2.0 mg/kg/day per os, Week 3", "result": "(−13) %"}, {"measurement": "SERUM TOTAL CHOLESTEROL", "setting": "[1]; compound A-5 2.0 mg/kg/day per os, Week 3, mean ± SEM", "result": "136 ± 10^3 mg/dL"}, {"measurement": "decrease in serum total cholesterol concentration", "setting": "[1]; compound A-5 2.0 mg/kg/day, one week of treatment", "result": 12, "unit": "%"}, {"measurement": "decrease in serum total cholesterol concentration", "setting": "[1]; compound A-5 2.0 mg/kg/day, three weeks of treatment", "result": 13, "unit": "%"}, {"measurement": "decrease in serum total cholesterol compared to the initial value at Week 0", "setting": "[1]; compound A-5 4 mg/kg/day for four weeks (beginning after Week 4), Week 8", "result": 23, "unit": "%"}, {"measurement": "% change in serum total cholesterol compared to the pretreatment value of each group", "setting": "[1]; compound A-5 6.0 mg/kg/day per os, Week 1", "result": "(−19) %"}, {"measurement": "SERUM TOTAL CHOLESTEROL", "setting": "[1]; compound A-5 6.0 mg/kg/day per os, Week 1, mean ± SEM", "result": "128 ± 11^3 mg/dL"}, {"measurement": "% change in serum total cholesterol compared to the pretreatment value of each group", "setting": "[1]; compound A-5 6.0 mg/kg/day per os, Week 2", "result": "(−22) %"}, {"measurement": "SERUM TOTAL CHOLESTEROL", "setting": "[1]; compound A-5 6.0 mg/kg/day per os, Week 2, mean ± SEM", "result": "124 ± 11^3 mg/dL"}, {"measurement": "% change in serum total cholesterol compared to the pretreatment value of each group", "setting": "[1]; compound A-5 6.0 mg/kg/day per os, Week 3", "result": "(−24) %"}, {"measurement": "SERUM TOTAL CHOLESTEROL", "setting": "[1]; compound A-5 6.0 mg/kg/day per os, Week 3, mean ± SEM", "result": "120 ± 11^3 mg/dL"}, {"measurement": "decrease in serum total cholesterol concentration", "setting": "[1]; compound A-5 6.0 mg/kg/day, one week of treatment", "result": 19, "unit": "%"}, {"measurement": "decrease in serum total cholesterol concentration", "setting": "[1]; compound A-5 6.0 mg/kg/day, three weeks of treatment", "result": 24, "unit": "%"}, {"measurement": "% change from Week 0 in total serum cholesterol", "setting": "[1]; compound A-5 monotherapy 4.0 mg/kg/day, dosed Weeks 5-8, Week 5", "result": "(−12) %"}, {"measurement": "TOTAL SERUM CHOLESTEROL", "setting": "[1]; compound A-5 monotherapy 4.0 mg/kg/day, dosed Weeks 5-8, Week 5, mean ± SEM", "result": "123 ± 9", "unit": "mg/dL"}, {"measurement": "% change from Week 0 in total serum cholesterol", "setting": "[1]; compound A-5 monotherapy 4.0 mg/kg/day, dosed Weeks 5-8, Week 6", "result": "(−18) %"}, {"measurement": "TOTAL SERUM CHOLESTEROL", "setting": "[1]; compound A-5 monotherapy 4.0 mg/kg/day, dosed Weeks 5-8, Week 6, mean ± SEM", "result": "115 ± 8 [a] mg/dL"}, {"measurement": "% change from Week 0 in total serum cholesterol", "setting": "[1]; compound A-5 monotherapy 4.0 mg/kg/day, dosed Weeks 5-8, Week 7", "result": "(−18) %"}, {"measurement": "TOTAL SERUM CHOLESTEROL", "setting": "[1]; compound A-5 monotherapy 4.0 mg/kg/day, dosed Weeks 5-8, Week 7, mean ± SEM", "result": "114 ± 6 [a] mg/dL"}, {"measurement": "% change from Week 0 in total serum cholesterol", "setting": "[1]; compound A-5 monotherapy 4.0 mg/kg/day, dosed Weeks 5-8, Week 8", "result": "(−23) %"}, {"measurement": "TOTAL SERUM CHOLESTEROL", "setting": "[1]; compound A-5 monotherapy 4.0 mg/kg/day, dosed Weeks 5-8, Week 8, mean ± SEM", "result": "107 ±7 mg/dL and 107 ± 7 [a] mg/dL"}, {"measurement": "% change from Week 0 in total serum cholesterol", "setting": "[1]; compound A-5 monotherapy group, dosing terminated after Week 8, Week 9", "result": "(−5) %"}, {"measurement": "TOTAL SERUM CHOLESTEROL", "setting": "[1]; compound A-5 monotherapy group, dosing terminated after Week 8, Week 9, mean ± SEM", "result": "132 ± 7", "unit": "mg/dL"}, {"measurement": "% change from Week 0 in total serum cholesterol", "setting": "[1]; compound A-5 monotherapy group, dosing terminated after Week 8, Week 10", "result": "(−4) %"}, {"measurement": "TOTAL SERUM CHOLESTEROL", "setting": "[1]; compound A-5 monotherapy group, dosing terminated after Week 8, Week 10, mean ± SEM", "result": "133 ± 10", "unit": "mg/dL"}, {"measurement": "% change from Week 0 in total serum cholesterol", "setting": "[1]; compound A-5 monotherapy group, dosing terminated after Week 8, Week 11", "result": "(−5) %"}, {"measurement": "TOTAL SERUM CHOLESTEROL", "setting": "[1]; compound A-5 monotherapy group, dosing terminated after Week 8, Week 11, mean ± SEM", "result": "132 ± 9", "unit": "mg/dL"}, {"measurement": "% change from Week 0 in total serum cholesterol", "setting": "[1]; compound A-5 monotherapy group, dosing terminated after Week 8, Week 12", "result": "(−2) %"}, {"measurement": "TOTAL SERUM CHOLESTEROL", "setting": "[1]; compound A-5 monotherapy group, dosing terminated after Week 8, Week 12, mean ± SEM", "result": "136 ± 9", "unit": "mg/dL"}, {"measurement": "% change from Week 0 in total serum cholesterol", "setting": "[1]; compound A-5 monotherapy group, dosing terminated after Week 8, Week 13", "result": "(−14) %"}, {"measurement": "TOTAL SERUM CHOLESTEROL", "setting": "[1]; compound A-5 monotherapy group, dosing terminated after Week 8, Week 13, mean ± SEM", "result": "137 ± 9", "unit": "mg/dL"}, {"measurement": "changes in body or fecal weights, stool consistency or general animal health", "setting": "[2]; Example 1, compound A-5 0.22-6.0 mg/kg/day for three weeks", "result": "no significant changes"}, {"measurement": "changes in body or fecal weights, stool consistency or general animal health", "setting": "[2]; Example 3 study (pravastatin 3-30 mg/kg/day, compound A-5 4.0 mg/kg/day, combination)", "result": "no significant changes"}]}]}
